Test results as given in patent US8129366B2, “VLA-4 inhibitory drug” (Daiichi Sankyo Company, Limited, priority 2005, dated 2012).

Biological target: T1, hα4 and β1 integrins (Homo sapiens, UniProt P05556+P13612)
T1 construct: expressed in transfected cells; host or cells: CHO cells
Assay: In vitro inhibition of binding between CHO cells expressing hα4 and β1 integrins and Eu3+-hVCAM-1 D1D7-IgG
Conditions: for Ki: CHO cells expressing hα4 and β1 integrins, Eu3+-hVCAM-1 D1D7-IgG ligand, without HSA; for IC50: in the presence of 3% human serum albumin (HSA final concentration 3%)
Procedure, shortened: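 Bound europium-labelled VCAM-1 D1D7-IgG on α4β1-expressing CHO cells was measured by time-resolved fluorescence after washing at 4 °C. Ligand (2 nM working dilution) and test compound, with or without 3% final HSA, were co-incubated for 1 h at room temperature in Mn²⁺-containing HEPES buffer, pH 7.5. IC50 came from % binding inhibition; Ki was calculated from ligand concentration and Scatchard Kd.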

T1 sequence (P13612 34-1032): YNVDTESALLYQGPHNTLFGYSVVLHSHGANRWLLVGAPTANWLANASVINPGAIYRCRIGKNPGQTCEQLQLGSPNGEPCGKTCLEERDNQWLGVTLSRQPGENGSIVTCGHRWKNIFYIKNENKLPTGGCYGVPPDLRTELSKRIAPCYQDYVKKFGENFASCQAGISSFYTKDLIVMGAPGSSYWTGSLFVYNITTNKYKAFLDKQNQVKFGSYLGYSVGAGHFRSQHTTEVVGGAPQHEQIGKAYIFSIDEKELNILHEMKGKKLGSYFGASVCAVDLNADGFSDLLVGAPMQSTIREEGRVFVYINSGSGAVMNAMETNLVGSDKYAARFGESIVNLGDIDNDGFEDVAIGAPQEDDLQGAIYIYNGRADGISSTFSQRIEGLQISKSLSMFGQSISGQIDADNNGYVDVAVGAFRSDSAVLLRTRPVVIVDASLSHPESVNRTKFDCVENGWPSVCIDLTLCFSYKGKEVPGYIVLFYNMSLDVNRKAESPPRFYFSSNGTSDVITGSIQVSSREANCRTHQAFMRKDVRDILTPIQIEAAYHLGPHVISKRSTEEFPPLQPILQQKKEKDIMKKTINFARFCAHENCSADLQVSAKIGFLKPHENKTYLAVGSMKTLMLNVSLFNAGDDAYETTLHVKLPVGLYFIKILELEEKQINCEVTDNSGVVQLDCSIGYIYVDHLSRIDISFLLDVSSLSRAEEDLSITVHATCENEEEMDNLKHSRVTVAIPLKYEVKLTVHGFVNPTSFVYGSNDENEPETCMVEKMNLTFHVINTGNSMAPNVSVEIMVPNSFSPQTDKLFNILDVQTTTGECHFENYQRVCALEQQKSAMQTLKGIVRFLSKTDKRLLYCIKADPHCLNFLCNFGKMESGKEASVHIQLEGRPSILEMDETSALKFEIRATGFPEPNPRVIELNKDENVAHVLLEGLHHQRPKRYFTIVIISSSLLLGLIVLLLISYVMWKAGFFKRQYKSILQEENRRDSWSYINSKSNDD
T1 sequence (P05556 21-798): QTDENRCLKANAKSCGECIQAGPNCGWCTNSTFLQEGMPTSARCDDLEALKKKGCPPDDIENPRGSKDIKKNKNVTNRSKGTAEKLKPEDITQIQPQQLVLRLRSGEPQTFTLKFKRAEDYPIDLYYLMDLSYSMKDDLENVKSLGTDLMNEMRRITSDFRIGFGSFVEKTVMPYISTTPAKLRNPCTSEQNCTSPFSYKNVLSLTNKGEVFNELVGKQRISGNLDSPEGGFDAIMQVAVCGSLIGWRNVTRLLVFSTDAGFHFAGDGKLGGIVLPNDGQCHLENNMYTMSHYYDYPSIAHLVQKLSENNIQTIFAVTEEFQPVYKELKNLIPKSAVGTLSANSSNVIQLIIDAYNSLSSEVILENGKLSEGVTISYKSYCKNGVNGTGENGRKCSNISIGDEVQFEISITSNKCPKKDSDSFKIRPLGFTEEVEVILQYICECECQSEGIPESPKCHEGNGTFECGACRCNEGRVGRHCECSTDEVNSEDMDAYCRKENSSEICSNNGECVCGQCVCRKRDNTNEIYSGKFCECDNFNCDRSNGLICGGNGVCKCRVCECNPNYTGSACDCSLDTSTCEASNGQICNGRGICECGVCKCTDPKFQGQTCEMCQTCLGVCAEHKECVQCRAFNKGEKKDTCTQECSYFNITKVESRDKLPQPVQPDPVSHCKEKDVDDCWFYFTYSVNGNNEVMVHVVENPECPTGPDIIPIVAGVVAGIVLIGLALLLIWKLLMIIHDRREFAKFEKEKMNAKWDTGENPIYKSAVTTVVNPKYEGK

Row | SMILES | Ki [nM] | IC50 [nM]
1 | Cn1cc(C(=O)Nc2cc(Cl)c(CC(=O)N3C[C@@H](N4CCN(CC(F)(F)F)CC4)C[C@H]3CO[C@H]3CC[C@H](C(=O)O)CC3)cc2Cl)c2ccccc21 [Example 122, Trans-4-[1-[[2,5-dichloro-4-[(1-methyl-1H-indol-3-ylcarbonyl)amino]phenyl]acetyl]-(4S)-[4-(2,2,2-trifluoroethyl)piperazin-1-yl]-(2S)-pyrrolidinylmethoxy]cyclohexanecarboxylic acid] | 8.8 | 36
2 | O=C(Nc1cc(F)c(CC(=O)N2C[C@@H](N3CCN(CC(F)(F)F)CC3)C[C@H]2CO[C@H]2CC[C@H](C(=O)O)CC2)cc1Cl)c1csc2ccccc12 [Example 123, Trans-4-[1-[[4-[(benzo[b]thiophen-3-ylcarbonyl)amino]-5-chloro-2-fluorophenyl]acetyl]-(4S)-[4-(2,2,2-trifluoroethyl)piperazin-1-yl]-(2S)-pyrrolidinylmethoxy]cyclohexanecarboxylic acid] | 1.8 | 10
3 | O=C(Nc1cc(Cl)c(CC(=O)N2C[C@@H](N3CCN(CC(F)(F)F)CC3)C[C@H]2CO[C@H]2CC[C@H](C(=O)O)CC2)cc1Cl)c1coc2ccccc12 [Example 125, Trans-4-[1-[[4-[(benzo[b]furan-3-ylcarbonyl)amino]-2,5-dichlorophenyl]acetyl]-(4S)-[4-(2,2,2-trifluoroethyl)piperazin-1-yl]-(2S)-pyrrolidinylmethoxy]cyclohexanecarboxylic acid] | 3.4 | 26
4 | O=C(Nc1cc(F)c(CC(=O)N2C[C@@H](N3CCN(CC(F)(F)F)CC3)C[C@H]2CO[C@H]2CC[C@H](C(=O)O)CC2)cc1Cl)c1coc2ccccc12 [Example 126, Trans-4-[1-[[4-[(benzo[b]furan-3-ylcarbonyl)amino]-5-chloro-2-fluorophenyl]acetyl]-(4S)-[4-(2,2,2-trifluoroethyl)piperazin-1-yl]-(2S)-pyrrolidinylmethoxy]cyclohexanecarboxylic acid] | 2.4 | 13
5 | Cn1nc(C(=O)Nc2ccc(CC(=O)N3C[C@@H](N4CCN(CC(F)(F)F)CC4)C[C@H]3CO[C@H]3CC[C@H](C(=O)O)CC3)cc2Cl)c2ccccc21 [Example 128, Trans-4-[1-[[3-chloro-4-[(1-methyl-1H-indazol-3-ylcarbonyl)amino]phenyl]acetyl]-(4S)-[4-(2,2,2-trifluoroethyl)piperazin-1-yl]-(2S)-pyrrolidinylmethoxy]cyclohexanecarboxylic acid] | 3.9 | 13
6 | O=C(Nc1cc(Cl)c(CC(=O)N2C[C@@H](N3CCN(CC(F)(F)F)CC3)C[C@H]2CO[C@H]2CC[C@H](C(=O)O)CC2)cc1Cl)c1c[nH]c2ccccc12 [Example 129, Trans-4-[1-[[2,5-dichloro-4-[(1H-indol-3-ylcarbonyl)amino]phenyl]acetyl]-(4S)-[4-(2,2,2-trifluoroethyl)piperazin-1-yl]-(2S)-pyrrolidinylmethoxy]cyclohexanecarboxylic acid] | 0.93 | 1.9
7 | Cn1cc(C(=O)Nc2ccc(CC(=O)N3C[C@@H](N4CCN(CC(F)(F)F)CC4)C[C@H]3CO[C@H]3CC[C@H](C(=O)O)CC3)cc2Cl)c2ccccc21 [Example 130, Trans-4-[1-[[3-chloro-4-[(1-methyl-1H-indol-3-ylcarbonyl)amino]phenyl]acetyl]-(4S)-[4-(2,2,2-trifluoroethyl)piperazin-1-yl]-(2S)-pyrrolidinylmethoxy]cyclohexanecarboxylic acid] | 2.7 | 7.5
8 | O=C(Nc1cc(F)c(CC(=O)N2C[C@@H](N3CCN(CC(F)(F)F)CC3)C[C@H]2CO[C@H]2CC[C@H](C(=O)O)CC2)cc1Cl)c1c[nH]c2ccccc12 [Example 131, Trans-4-[1-[[5-chloro-2-fluoro-4-[(1H-indol-3-ylcarbonyl)amino]phenyl]acetyl]-(4S)-[4-(2,2,2-trifluoroethyl)piperazin-1-yl]-(2S)-pyrrolidinylmethoxy]cyclohexanecarboxylic acid] | 1.1 | 1.8
9 | O=C(Nc1ccc(CC(=O)N2C[C@@H](N3CCN(CC(F)(F)F)CC3)C[C@H]2CO[C@H]2CC[C@H](C(=O)O)CC2)cc1Cl)c1coc2ccccc12 [Example 132, Trans-4-[1-[[4-[(benzo[b]furan-3-ylcarbonyl)amino]-3-chlorophenyl]acetyl]-(4S)-[4-(2,2,2-trifluoroethyl)piperazin-1-yl]-(2S)-pyrrolidinylmethoxy]cyclohexanecarboxylic acid] | 1.7 | 4
10 | COc1cc(CC(=O)N2C[C@@H](N3CCN(CC(F)(F)F)CC3)C[C@H]2CO[C@H]2CC[C@H](C(=O)O)CC2)ccc1NC(=O)c1csc2ccccc12 [Example 133, Trans-4-[1-[[4-[(benzo[b]thiophen-3-ylcarbonyl)amino]-3-methoxyphenyl]acetyl]-(4S)-[4-(2,2,2-trifluoroethyl)piperazin-1-yl]-(2S)-pyrrolidinylmethoxy]cyclohexanecarboxylic acid] | 1.3 | 3.3
11 | O=C(Nc1ccc(CC(=O)N2C[C@@H](N3CCN(CC(F)(F)F)CC3)C[C@H]2CO[C@H]2CC[C@H](C(=O)O)CC2)cc1Cl)c1csc2ccccc12 [Example 134, Trans-4-[1-[[4-[(benzo[b]thiophen-3-ylcarbonyl)amino]-3-chlorophenyl]acetyl]-(4S)-[4-(2,2,2-trifluoroethyl)piperazin-1-yl]-(2S)-pyrrolidinylmethoxy]cyclohexanecarboxylic acid] | 1.2 | 6.8
12 | COc1cc(CC(=O)N2C[C@@H](N3CCN(CC(F)(F)F)CC3)C[C@H]2CO[C@H]2CC[C@H](C(=O)O)CC2)ccc1NC(=O)c1cn(C)c2ccccc12 [Example 135, Trans-4-[1-[[3-methoxy-4-[(1-methyl-1H-indol-3-ylcarbonyl)amino]phenyl]acetyl]-(4S)-[4-(2,2,2-trifluoroethyl)piperazin-1-yl]-(2S)-pyrrolidinylmethoxy]cyclohexanecarboxylic acid] | 1.7 | 4.4
13 | COCCN1CCN([C@H]2C[C@@H](CO[C@H]3CC[C@H](C(=O)O)CC3)N(C(=O)Cc3cc(Cl)c(NC(=O)c4cn(C)c5ccccc45)cc3Cl)C2)CC1 [Example 137, Trans-4-[1-[[2,5-dichloro-4-[(1-methyl-1H-indol-3-ylcarbonyl)amino]phenyl]acetyl]-(4S)-(4-(2-methoxyethyl)piperazin-1-yl)-(2S)-pyrrolidinylmethoxy]cyclohexanecarboxylic acid] | 2.9 | 8.7
14 | O=C(Nc1cc(Cl)c(CC(=O)N2C[C@@H](N3CCN(C4CC4)CC3)C[C@H]2CO[C@H]2CC[C@H](C(=O)O)CC2)cc1Cl)c1csc2ccccc12 [Example 138, Trans-4-[1-[[4-[(benzo[b]thiophen-3-ylcarbonyl)amino]-2,5-dichlorophenyl]acetyl]-(4S)-(4-cyclopropylpiperazin-1-yl)-(2S)-pyrrolidinylmethoxy]cyclohexanecarboxylic acid] | 0.91 | 7.7
15 | O=C(Nc1cc(Cl)c(CC(=O)N2C[C@@H](N3CCN(C4CC4)CC3)C[C@H]2CO[C@H]2CC[C@H](C(=O)O)CC2)cc1Cl)c1coc2ccccc12 [Example 140] | 1.8 | 7.6
16 | Cn1cc(C(=O)Nc2cc(F)c(CC(=O)N3C[C@@H](N4CCN(C5(C)CC5)CC4)C[C@H]3CO[C@H]3CC[C@H](C(=O)O)CC3)cc2Cl)c2ccccc21 [Example 141, Trans-4-[1-[[5-chloro-2-fluoro-4-[(1-methyl-1H-indol-3-ylcarbonyl)amino]phenyl]acetyl]-(4S)-[4-(1-methylcyclopropan-1-yl)piperazin-1-yl]-(2S)-pyrrolidinylmethoxy]cyclohexa necarboxylic acid] | 6.3 | 23
17 | Cn1cc(C(=O)Nc2cc(F)c(CC(=O)N3C[C@@H](N4CCN(C5CCCC5)CC4)C[C@H]3CO[C@H]3CC[C@H](C(=O)O)CC3)cc2Cl)c2ccccc21 [Example 142, Trans-4-[1-[[5-chloro-2-fluoro-4-[(1-methyl-1H-indol-3-ylcarbonyl)amino]phenyl]acetyl]-(4S)-[4-cyclopentylpiperazin-1-yl]-(2S)-pyrrolidinylmethoxy]cyclohexanecarboxylic acid] | 4.7 | 11
18 | O=C(Nc1cc(Cl)c(CC(=O)N2C[C@@H](N3CCN(C4CCCCC4)CC3)C[C@H]2CO[C@H]2CC[C@H](C(=O)O)CC2)cc1Cl)c1coc2ccccc12 [Example 143, Trans-4-[1-[[4-[(benzo[b]furan-3-ylcarbonyl)amino]-2,5-dichlorophenyl]acetyl]-(4S)-[4-cyclohexylpiperazin-1-yl]-(2S)-pyrrolidinylmethoxy]cyclohexanecarboxylic acid] | 3.5 | 14
19 | Cn1cc(C(=O)Nc2cc(F)c(CC(=O)N3C[C@@H](N4CCN(c5ccncc5)CC4)C[C@H]3CO[C@H]3CC[C@H](C(=O)O)CC3)cc2Cl)c2ccccc21 [Example 145, Trans-4-[1-[[5-chloro-2-fluoro-4-[(1-methyl-1H-indol-3-ylcarbonyl)amino]phenyl]acetyl]-(4S)-[4-(4-pyridyl)piperazin-1-yl]-(2S)-pyrrolidinylmethoxy]cyclohexanecarboxylic acid] | 3.9 | 11
20 | C[C@@H]1CN([C@H]2C[C@@H](CO[C@H]3CC[C@H](C(=O)O)CC3)N(C(=O)Cc3cc(Cl)c(NC(=O)c4coc5ccccc45)cc3F)C2)C[C@H](C)N1C [Example 146, Trans-4-[1-[[4-[(benzo[b]furan-3-ylcarbonyl)amino]-5-chloro-2-fluorophenyl]acetyl]-(4S)-(cis-1,2,6-trimethylpiperazin-4-yl)-(2S)-pyrrolidinylmethoxy]cyclohexanecarboxylic acid] | 2.6 | 7.6
